Source: patent US11690810B2, “Combination treatment of bacterial infection” (The Chinese University of Hong Kong, priority 2018, dated 2023)
In brackets after ≈: the same amount, converted by molar mass. Like-named read-outs stand apart in the source and are kept apart here.

Key:
[1] = tested on: human peripheral blood mononuclear cells (PBMC); assay: XTT cytotoxicity testing; assay type: cell-based; conditions: 2-64 μg/ml, vs drug free control
Procedure: (§1) The plates were maintained in a 37° C. incubator.
The cytotoxicity of kuraridin and its analogues were determined by the sodium 3′-[1-(phenylaminocarbonyl)-3,4-tetrazolium]-bis (4-methoxy-6-nitro) benzene sulfonic acid hydrate (XTT) assay.
Serial dilutions of the compounds ranging 2-64 μg/ml were incubated with PBMCs at 37° C. for 72 hrs.

[2] = tested on: Human Mammary Epithelial Cell (HMEC); assay: XTT cytotoxicity testing; assay type: cell-based; conditions: 2-64 μg/ml, vs drug free control
Procedure: as §1

[3] = tested on: cytokines production of human PBMC stimulated with PGN or SEB; assay type: cell-based
[4] = tested on: cytokines production of human macrophages stimulated with PGN or SEB; assay type: cell-based
[5] = tested on: Panton-Valentine leukocidin positive CA-MRSA strain ST30; assay type: in vivo, Balb/c mice; conditions: ST30
clinical MRSA ST239 = assay: Mouse pneumonia model, ST239 (neutropenic mice); assay type: in vivo, Balb/c mice; conditions: ST239; 48 h; 1 also died in control
[6] = tested on: adherence of MRSA strain JE-2 to fibrinogen; assay: Fibrinogen-binding adherence assay (crystal violet); assay type: cell-based, Staphylococcus aureus; conditions: kuraridin at 1.0 μg/ml
[7] = tested on: adherence of MRSA strain JE-2 to HaCat keratinocytes; assay: Bacterial adherence to HaCaT keratinocytes; assay type: cell-based, Staphylococcus aureus
[8] = tested on: internalization of MRSA strain JE-2 by HaCat keratinocytes; assay: Internalization of S. aureus by HaCaT keratinocytes; assay type: cell-based, Staphylococcus aureus
[9] = tested on: bacterial aggregation of MRSA JE-2; assay: Aggregation assay of MRSA JE-2; assay type: cell-based, Staphylococcus aureus; conditions: kuraridin at 4 μg/ml
panel of MRSA strains = conditions: previous study (12); cited from earlier work
physchem = conditions: aqueous with cosolvent or surfactant or cyclodextrin
[10] = tested on: Human Umbilical Vein Endothelial Cells (HUVEC); assay: XTT cytotoxicity testing; conditions: 2-64 μg/ml, vs drug free control
[11] = tested on: S. aureus SA-APH2″-AAC6′ (APH2), resistant to gentamicin; assay: MIC and checkerboard (FIC) assay
[12] = tested on: S. aureus SA-APH3′ (APH3), resistant to kanamycin; assay: MIC and checkerboard (FIC) assay
[13] = tested on: S. aureus SA-ANT4′ (ANT4), resistant to fusidic acid; assay: MIC and checkerboard (FIC) assay
[14] = tested on: S. aureus SA-RN4220-pUL5054 (RN4220); assay: MIC and checkerboard (FIC) assay
[15] = tested on: S. aureus SA-1199B (NorA efflux pump overexpressed); assay: MIC and checkerboard (FIC) assay
MRSA SA-ST239 = assay: MIC and checkerboard (FIC) assay; conditions: Staphylococcus aureus, MRSA
[16] = tested on: S. aureus ATCC25923 (methicillin sensitive); assay: MIC and checkerboard (FIC) assay; conditions: Staphylococcus aureus
[17] = tested on: clinical community-associated (CA) and hospital-associated (HA) MRSA strains; assay: MIC and combination tests, panel of clinical strains; conditions: range over clinical CA and HA MRSA strains (Table 3)
[18] = tested on: panel of laboratory MRSA strains; assay: MIC and combination tests, panel of laboratory strains
[19] = Staphylococcus aureus, read-out: MIC 99.9
[20] = Staphylococcus aureus, read-out: MIC alone

Compound: C=C(C)C(CC=C(C)C)Cc1c(O)cc(OC)c(C(=O)/C=C/c2ccc(O)cc2O)c1O (stereo not shown) [Kuraridin]
- Cellular toxicity (XTT assay) [1]: not toxic
- Cellular toxicity (XTT assay) [2]: not toxic
- IL-10 and IL-12 production [3]: dose-dependently inhibited
- IFN-γ productions [4]: could suppress
- IL-6 and IL-12 production [4]: dose-dependently inhibited
- TNF-α production [4]: suppressed
- log CFU counts (left lung) ([5]; kuraridin 120 mg/kg, ECG 120 mg/kg, 48 h, control 9.24±0.15): 8.25±0.39 log CFU
- survival rates ([5]; kuraridin 120 mg/kg, ECG 120 mg/kg, control 30%): 50%
- log CFU counts and survival rates ([5]; used alone at 60 and 120 mg/kg): could not reduce the log CFU counts or improve the survival rates
- mice died (clinical MRSA ST239): 1 mouse
- reduction in the adherence of the WT strain to fibrinogen [6]: 100%
- adherence of WT strain to HaCaT cells ([7]; 2 μg/ml kuraridin (0.25×MIC)): abolished
- percentage of adherence of the bacteria ([7]; kuraridin 0.25 μg/ml): 28.4±3.2%
- percentage of adherence of the bacteria ([7]; kuraridin 0.5 μg/ml): 17.8±11.1%
- percentage of adherence of the bacteria ([7]; kuraridin 1 μg/ml): 7.6±3.7%
- percentage of internalized bacteria by HaCaT cells ([8]; kuraridin 0.25 μg/ml): 23.8±4.6%
- percentage of internalized bacteria by HaCaT cells ([8]; kuraridin 0.5 μg/ml): 15.8±2.0%
- aggregation lower than the mutant ΔSrtA [9]: 3.7 folds
- reduction in bacterial aggregation as compared to the wild type without drug [9]: 4.4 fold
- minimum inhibitory concentration (MIC) (panel of MRSA strains): around 8 μg/ml
- solubility (physchem): 20 mg/mL (≈ 45.6 mM)
- Cellular toxicity (XTT assay) [10]: not toxic
- FIC ([11]; APH2, Kuraridin with ECG): 0.25
- MIC combine ([11]; APH2, Kuraridin with ECG): 2 µg/mL
- MIC90 ([11]; Staphylococcus aureus): 8 µg/mL
- MIC99 [11, 19]: 8 µg/mL
- MIC [11, 20]: 8 µg/mL
- FIC ([12]; APH3, Kuraridin with ECG): 0.25
- MIC combine ([12]; APH3, Kuraridin with ECG): 2 µg/mL
- MIC90 ([12]; Staphylococcus aureus): 8 µg/mL
- MIC99 [12, 19]: 8 µg/mL
- MIC [12, 20]: 8 µg/mL
- FIC ([13]; ANT4, Kuraridin with ECG): 0.25
- MIC combine ([13]; ANT4, Kuraridin with ECG): 2 µg/mL
- MIC90 ([13]; Staphylococcus aureus): 4 µg/mL
- MIC99 [13, 19]: 8 µg/mL
- MIC [13, 20]: 8 µg/mL
- FIC ([14]; RN4220, Kuraridin with ECG): 0.25
- MIC combine ([14]; RN4220, Kuraridin with ECG): 2 µg/mL
- MIC90 ([14]; Staphylococcus aureus): 8 µg/mL
- MIC ([14]; Staphylococcus aureus, read-out: Activity (MIC, μg/ml)): 8 µg/mL
- MIC99 [14, 19]: 8 µg/mL
- MIC [14, 20]: 8 µg/mL
- FIC ([15]; 1199B, Kuraridin with ECG): 0.25
- MIC combine ([15]; 1199B, Kuraridin with ECG): 4 µg/mL
- MIC90 ([15]; Staphylococcus aureus): 16 µg/mL
- MIC99 [15, 19]: 16 µg/mL
- MIC ([15]; Staphylococcus aureus, read-out: MIC alone, 1199B, Kuraridin and ECG section): 16 µg/mL
- MIC90 (MRSA SA-ST239): 8 µg/mL
- MIC99 (MRSA SA-ST239; read-out: MIC 99.9): 8 µg/mL
- MIC90 ([16]; ATCC25923): 8 µg/mL
- MIC99 ([16]; ATCC25923, read-out: MIC 99.9): 8 µg/mL
- MICs in kuraridin and ECG combined treatment [17]: 1 to 4 µg/mL
- MIC99 ([18]; Staphylococcus aureus, MRSA): 8 to 16 µg/mL
- MICs in kuraridin and ECG combined treatment ([18]; range over laboratory strains (Table 2)): 2 to 4 µg/mL
